From publication PMC2864305 (Biochemistry, 2010)

Target: T1, RePC (Rhizobium etli pyruvate carboxylase) (Rhizobium etli, UniProt Q2K340)
T1 sequence (Q2K340 1-1154): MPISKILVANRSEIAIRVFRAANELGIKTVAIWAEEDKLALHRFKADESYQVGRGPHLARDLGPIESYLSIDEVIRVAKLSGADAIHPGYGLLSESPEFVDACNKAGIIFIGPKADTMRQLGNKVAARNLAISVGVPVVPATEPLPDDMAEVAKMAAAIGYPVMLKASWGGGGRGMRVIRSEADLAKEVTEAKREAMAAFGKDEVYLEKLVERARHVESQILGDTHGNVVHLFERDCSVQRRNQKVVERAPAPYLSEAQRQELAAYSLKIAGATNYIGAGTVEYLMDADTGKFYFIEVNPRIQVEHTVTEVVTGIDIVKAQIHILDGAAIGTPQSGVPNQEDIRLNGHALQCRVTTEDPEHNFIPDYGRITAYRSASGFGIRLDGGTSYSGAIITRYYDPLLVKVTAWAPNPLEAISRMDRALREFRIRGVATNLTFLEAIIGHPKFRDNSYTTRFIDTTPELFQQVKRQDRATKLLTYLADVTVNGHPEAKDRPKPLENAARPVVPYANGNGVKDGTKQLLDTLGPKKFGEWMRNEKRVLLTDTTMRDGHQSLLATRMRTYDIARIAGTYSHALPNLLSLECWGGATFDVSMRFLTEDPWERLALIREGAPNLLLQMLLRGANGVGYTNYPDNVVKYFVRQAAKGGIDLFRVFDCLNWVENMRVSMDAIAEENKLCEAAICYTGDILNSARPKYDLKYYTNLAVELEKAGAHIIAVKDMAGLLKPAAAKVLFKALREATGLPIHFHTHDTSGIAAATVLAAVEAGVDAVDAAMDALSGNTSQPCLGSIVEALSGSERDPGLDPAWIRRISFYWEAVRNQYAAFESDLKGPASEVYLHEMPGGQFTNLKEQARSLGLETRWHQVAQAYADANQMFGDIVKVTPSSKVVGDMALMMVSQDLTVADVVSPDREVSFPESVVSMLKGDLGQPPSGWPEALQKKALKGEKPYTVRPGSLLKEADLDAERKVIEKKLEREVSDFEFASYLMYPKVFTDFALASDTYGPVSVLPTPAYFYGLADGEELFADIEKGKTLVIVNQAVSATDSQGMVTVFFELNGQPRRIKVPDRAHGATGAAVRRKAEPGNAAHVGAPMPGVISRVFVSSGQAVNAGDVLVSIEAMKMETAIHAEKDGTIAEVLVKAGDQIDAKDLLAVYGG
Format: biochemical
Conditions: read-out: % inhibition at 20 mM

inhibition at 20000 µM: 68%
Compound: NC(=O)C(=O)O [oxamate]
